Data as given in US20170305922A1, “CARM1 INHIBITORS AND USES THEREOF” (Epizyme, Inc., priority 2014, published 2017).

Columns and labels:
[1] = target: T1, Human CARM1 (PRMT4) (Homo sapiens, UniProt Q86X55); experiment: CARM1 enzyme assay on peptide substrates (3H-SAM Flashplate); settings: Biochemical assay; CARM1 0.25 nM, 3H-SAM 30 nM, peptide 250 nM; read-out: Biochem IC50
T1 construct: Flag-CARM1-His was eluted with 200 ug/ml FLAG peptide in buffer A; made in house; host or cells: HEK 293F cells infected with recombinant baculovirus (pFastBacMam)
T1 sequence (Q86X55 1-585 isoform Q86X55-1): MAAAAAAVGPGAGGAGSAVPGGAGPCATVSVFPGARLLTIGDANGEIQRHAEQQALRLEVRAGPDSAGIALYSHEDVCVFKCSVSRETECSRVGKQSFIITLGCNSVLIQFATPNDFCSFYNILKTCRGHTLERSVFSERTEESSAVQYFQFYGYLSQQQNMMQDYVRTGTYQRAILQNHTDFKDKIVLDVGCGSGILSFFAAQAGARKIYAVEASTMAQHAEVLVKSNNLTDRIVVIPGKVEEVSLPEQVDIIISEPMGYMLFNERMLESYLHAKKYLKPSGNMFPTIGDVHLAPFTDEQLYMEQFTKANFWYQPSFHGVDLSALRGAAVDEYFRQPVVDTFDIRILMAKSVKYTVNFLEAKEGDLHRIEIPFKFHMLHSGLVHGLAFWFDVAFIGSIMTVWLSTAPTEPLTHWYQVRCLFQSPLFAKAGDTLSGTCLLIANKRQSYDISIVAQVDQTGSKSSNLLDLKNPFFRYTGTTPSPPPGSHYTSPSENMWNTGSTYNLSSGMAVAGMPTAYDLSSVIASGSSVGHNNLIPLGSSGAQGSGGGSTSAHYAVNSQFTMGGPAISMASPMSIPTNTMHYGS

[2] = test system: asymmetric di-methyl PABP1 in RKO cells; experiment: RKO methylation assay: In Cell Western (ICW) for asymmetric di-methyl PABP1 (PABP1me2a); settings: Homo sapiens, RKO, 48 h, Cellular-based (PABP1me2a) ICW (In Cell Western) assay
Method in brief: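 In-cell western on compound-exposed RKO cells (48 hours): asymmetric di-methyl PABP1 detected by antibody at 800 nm, DNA content by DRAQ5 at 700 nm. Percent inhibition from signal ratios against DMSO (minimum) and 20 μM reference compound (maximum) wells; IC50 curves fitted from triplicates.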

| Compound | IC50 [1] | IC50 [2] |
| --- | --- | --- |
| CNC[C@@H](O)COc1ccc(Cl)c(-c2nc(-c3c(C)noc3C)c(C)c(-n3cc4c(n3)CN(C(=O)OC)C4)n2)c1 [Example 139] | 5.2 nM | 131 nM |
| CNC[C@@H](O)COc1ccc(Cl)c(-c2nc(-c3c(C)c(Br)nn3C)c(C)c(N3CC4(CC(OC)C4)C3)n2)c1 [Example 256] | 3.96 nM | 43.2 nM |
| CCC1(C(=O)N2CCC2)CN(c2nc(-c3cc(OC[C@H](O)CNC)ccc3Cl)nc(-c3c(C)noc3C)c2C)C1 [Example 189] | 5.7 nM | 246 nM |
| CNC[C@@H](O)COc1ccc(Cl)c(-c2nc(-c3c(Br)cnn3C)c(C)c(N3CC4(CN(CC(F)(F)F)C4)C3)n2)c1 [Example 267] | 8.97 nM | 121 nM |
| CNC[C@@H](O)COc1ccc(Cl)c(-c2nc(-c3c(C)noc3C)c(C)c(N3Cc4cnc(N(C)C)nc4C3)n2)c1 [Example 158] | 2.9 nM | 18 nM |
| CNC[C@@H](O)COc1ccc(Cl)c(-c2nc(-c3c(C)noc3C)c(C)c(N3CC4(CCN4C(=O)OC)C3)n2)c1 [Example 98] | 8.4 nM | 99 nM |
| CNC[C@@H](O)COc1ccc(Cl)c(-c2nc(-c3c(C)noc3C)c(C)c(N3CC4(CN(CCC(F)(F)F)C4)C3)n2)c1 [Example 264] | 4.11 nM | 51.9 nM |
| CNC[C@@H](O)COc1ccc(Cl)c(-c2nc(C#CC3CCN(C(=O)OC)CC3)c(C)c(-c3c(C)noc3C)n2)c1 [Example 86] | 97 nM | 283 nM |
| CNC[C@@H](O)COc1ccc(Cl)c(-c2nc(-c3c(C)noc3C)c(C)c(N3C[C@H]4C[C@@H]3CN4C(=O)OC)n2)c1 [Example 130] | 5.9 nM | 960 nM |
| CNC[C@@H](O)COc1ccc(Cl)c(-c2nc(-c3c(C)c(Br)nn3C)c(C)c(N3CC4(CN(CC(F)F)C4)C3)n2)c1 [Example 284] | 2.36 nM | 39.2 nM |
| CNC[C@@H](O)COc1ccc(Cl)c(-c2nc(-c3c(C)noc3C)c(C)c(N3Cc4cn(C5COC5)nc4C3)n2)c1 [Example 126] | 6.2 nM | 157 nM |
| CCn1ncc(C)c1-c1nc(-c2cc(OC[C@H](O)CNC)ccc2Cl)nc(N2Cc3cccnc3C2)c1C [Example 89] | 3.7 nM | 165 nM |
| CNC[C@@H](O)COc1ccc(Cl)c(-c2nc(-c3c(C)noc3C)c(C)c(N3Cc4cnc(N5CC[C@@H]5C)nc4C3)n2)c1 [Example 195] | 1.8 nM | 13 nM |
| CNC[C@@H](O)COc1ccc(Cl)c(-c2nc(-c3c(C)c(Br)nn3C)c(C)c(N3CC4(CC(OC(C)C)C4)C3)n2)c1 [Example 275] | 3.53 nM | 45 nM |
| CNC[C@@H](O)COc1ccc(Cl)c(-c2nc(-c3c(C)noc3C)c(C)c(N3CC4(CN(C(=O)OCC(F)F)C4)C3)n2)c1 [Example 220] | 4.2 nM | 221 nM |
| CNC[C@@H](O)COc1ccc(Cl)c(-c2nc(-c3c(C)noc3C)c(C)c(N3CC4(CCN(S(C)(=O)=O)C4)C3)n2)c1 [Example 49] | 7.7 nM | 399 nM |
| CNC[C@@H](O)COc1ccc(Cl)c(-c2nc(-c3c(C)noc3C)c(C)c(N3CC4=C(CN(CC(F)F)C4)C3)n2)c1 [Example 54] | 4.4 nM | 45 nM |
| CNC[C@@H](O)COc1ccc(Cl)c(-c2nc(-c3c(C)noc3C)c(C)c(N3CC4=C(CN(C(=O)OC)CC4)C3)n2)c1 [Example 257] | 2.4 nM | 22.7 nM |
| CNC[C@@H](O)COc1ccc(Cl)c(-c2nc(-c3c(C)noc3C)c(C)c(N3CCN(CC(F)F)CC3)n2)c1 [Example 224] | 6.8 nM | 330 nM |
| CNC[C@@H](O)COc1ccc(Cl)c(-c2nc(-c3c(C)noc3C)c(C)c(N3Cc4cnc(C)cc4[C@@H]3C)n2)c1 [Example 142] | 3.6 nM | 65 nM |
| CNC[C@@H](O)COc1ccc(Cl)c(-c2nc(-c3c(C#N)cnn3C)c(C)c(N3Cc4cncnc4C3)n2)c1 [Example 349] | 7.81 nM | 3110 nM |
| CNC[C@@H](O)COc1ccc(Cl)c(-c2nc(-c3c(Cl)cnn3C)c(C)c(N3Cc4cncnc4C3)n2)c1 [Example 344] | 12.8 nM | 713 nM |
